Assay results published in ChEMBL document CHEMBL4177597, “A series of novel indazole derivatives of Sirt 1 activator as osteogenic regulators” (Bioorg Med Chem Lett, 2017).
Each block holds one compound with its values, some of them ahead of it. Activity calls are given as the source filed them. No cut-off for these calls is given here.

How the values were obtained:
[1] = target: T1, NAD-dependent protein deacetylase sirtuin-1 (Homo sapiens) (UniProt Q96EB6); assay: Activation of SIRT1 (unknown origin) by mass spectrophotometric analysis
T1 sequence (whole entry): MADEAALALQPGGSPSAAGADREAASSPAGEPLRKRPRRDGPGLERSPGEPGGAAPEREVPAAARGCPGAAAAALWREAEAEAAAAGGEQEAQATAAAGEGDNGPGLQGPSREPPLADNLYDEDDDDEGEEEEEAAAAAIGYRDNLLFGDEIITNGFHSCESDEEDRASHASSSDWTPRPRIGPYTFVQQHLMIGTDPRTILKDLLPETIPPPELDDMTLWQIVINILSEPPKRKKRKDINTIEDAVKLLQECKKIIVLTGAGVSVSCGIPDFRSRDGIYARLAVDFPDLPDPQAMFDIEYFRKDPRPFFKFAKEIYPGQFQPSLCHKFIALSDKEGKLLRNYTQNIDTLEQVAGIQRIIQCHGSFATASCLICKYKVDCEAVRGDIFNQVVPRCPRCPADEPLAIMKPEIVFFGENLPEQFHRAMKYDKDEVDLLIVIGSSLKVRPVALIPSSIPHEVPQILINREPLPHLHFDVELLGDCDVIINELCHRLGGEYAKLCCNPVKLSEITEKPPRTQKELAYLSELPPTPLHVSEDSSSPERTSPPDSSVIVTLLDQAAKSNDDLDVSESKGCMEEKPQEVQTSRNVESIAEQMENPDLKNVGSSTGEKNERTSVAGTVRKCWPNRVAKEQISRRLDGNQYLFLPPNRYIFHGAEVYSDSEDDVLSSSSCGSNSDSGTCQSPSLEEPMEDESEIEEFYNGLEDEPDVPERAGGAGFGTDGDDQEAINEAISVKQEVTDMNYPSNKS

[2] = Octanol-water apparent partition coefficient, log D of the compound at pH 7.4 after 24 hrs by shake flask method; type: physicochemical
[3] = target: T1, NAD-dependent protein deacetylase sirtuin-1 (Homo sapiens); assay: Activation of SIRT1 in human U2OS cells assessed as increase in ALP activity using p-NPP as substrate measured after 30 mins by colorimetric method; type: cell-based
[4] = target: T1, NAD-dependent protein deacetylase sirtuin-1 (Homo sapiens); assay: Activation of SIRT1 in human U2OS cells assessed as increase in deacetylation of doxorubicin-induced acetylated p53 at 0.01 to 1 uM by Western blot analysis; type: cell-based

Structure (SMILES): Cn1nc(-c2ccc3ccccc3c2)c2cc(NCc3cc(F)ccc3S(C)(=O)=O)ccc21
EC150 [1]: 2.88 µM

Structure (SMILES): Cn1nc(-c2ccc(C(=O)N[C@H]3CC[C@H](O)CC3)cc2)c2cc(NCc3cc(F)ccc3S(C)(=O)=O)ccc21
EC150 [1]: 0.95 µM

Structure (SMILES): Cc1cc(CNc2ccc3c(c2)c(-c2ccc(C(=O)N[C@H]4CC[C@H](O)CC4)cc2)nn3C)c(S(C)(=O)=O)cc1F
EC150 [1]: > 20 µM

Structure (SMILES): Cn1nc(-c2ccc(C(=O)NCCc3ccn[nH]3)cc2)c2cc(NCc3cc(F)ccc3S(C)(=O)=O)ccc21
EC150 [1]: 1.36 µM

Structure (SMILES): CCCS(=O)(=O)c1ccccc1CNc1ccc2c(c1)c(-c1ccc(C(=O)N[C@H]3CC[C@H](O)CC3)cc1)nn2C
EC150 [1]: 4.54 µM

Structure (SMILES): Cn1nc(-c2ccc(C(=O)NCC3CCCO3)cc2)c2cc(NCc3cc(F)ccc3S(C)(=O)=O)ccc21 (configuration not stated)
EC150 [1]: 1.46 µM

Structure (SMILES): COCCS(=O)(=O)c1ccccc1CNc1ccc2c(c1)c(-c1ccc(C(=O)N[C@H]3CC[C@H](O)CC3)cc1)nn2C
EC150 [1]: 7.23 µM

Structure (SMILES): CNC(=O)c1ccc(-c2nn(C)c3ccc(NCc4cc(F)ccc4S(C)(=O)=O)cc23)cc1
EC150 [1]: 2.92 µM

Other lines, results leading:

EC150 [1]: 0.4 µM | logD at 24 h [2]: 1.41
Structure (SMILES): Cc1cc(S(C)(=O)=O)c(CNc2ccc3c(c2)c(-c2ccc(C(=O)N[C@H]4CC[C@H](O)CC4)cc2)nn3C)cc1F

EC150 [1]: 0.4 µM | logD at 24 h [2]: 1.37 | EC30 [3]: 0.65 nM | Activity [4]: Active
Structure (SMILES): Cn1nc(-c2ccc(C(=O)N[C@H]3CC[C@H](O)CC3)cc2)c2cc(NCc3cc(F)c(F)cc3S(C)(=O)=O)ccc21

EC150 [1]: 1.52 µM
Structure (SMILES): Cn1nc(-c2cc3ccccc3s2)c2cc(NCc3cc(F)ccc3S(C)(=O)=O)ccc21

EC150 [1]: 2.4 µM
Structure (SMILES): CCS(=O)(=O)c1ccccc1CNc1ccc2c(c1)c(-c1ccc(C(=O)N[C@H]3CC[C@H](O)CC3)cc1)nn2C

EC150 [1]: 1.49 µM
Structure (SMILES): Cn1nc(-c2cnc3ccccc3c2)c2cc(NCc3cc(F)ccc3S(C)(=O)=O)ccc21
